Experimental data: patent US10975013B2, “Method for producing vanillin” (T. HASEGAWA CO., LTD., priority 2018, dated 2021)

Assays:
Assay type in all cases: physicochemical
[1] = Solubility of vanillin in various solvents at 25° C.
[2] = Solubility of vanillin in solvent-heptane mixed solvents (1:1) at 25° C.
[3] = Solubility of vanillin in dibutyl maleate-solvent mixed solvents (1:1) at 25° C.

For `COc1cc(C=O)ccc1O` [vanillin], the “Solubility (mass %) of vanillin at 25° C.” value ([1]; solvent 1-Chlorotetradecane) was 0.4% mass %, the “Solubility (mass %) of vanillin at 25° C.” value ([1]; solvent Benzyl benzoate) was 6.6% mass % and the “Solubility (mass %) of vanillin at 25° C.” value ([1]; solvent Dibenzyl ether) was 5.5% mass %. For the same compound, the “Solubility (mass %) of vanillin at 25° C.” value ([1]; solvent Dibutyl adipate) was 10.9% mass %, the “Solubility (mass %) of vanillin at 25° C.” value ([1]; solvent Dibutyl fumarate) was 9.2% mass % and the “Solubility (mass %) of vanillin at 25° C.” value ([1]; solvent Dibutyl maleate) was 11.3% mass %. For the same compound, the “Solubility (mass %) of vanillin at 25° C.” value ([1]; solvent Dibutyl succinate) was 15.4% mass %, the “Solubility (mass %) of vanillin at 25° C.” value ([1]; solvent Diethyl phthalate) was 14.8% mass % and the “Solubility (mass %) of vanillin at 25° C.” value ([1]; solvent Diethyl sebacate) was 13.6% mass %. The “Solubility (mass %) of vanillin at 25° C.” value ([1]; solvent Diisobutyl adipate) was 7.7% mass %, the “Solubility (mass %) of vanillin at 25° C.” value ([1]; solvent Ethyl laurate) was 3.1% mass % and the “Solubility (mass %) of vanillin at 25° C.” value ([1]; solvent Isopropyl myristate) was 2.0% mass %. For the same compound, the “Solubility (mass %) of vanillin at 25° C.” value ([1]; solvent Tetraglyme) was 31.3% mass %, the “Solubility (mass %) of vanillin at 25° C.” value ([1]; solvent Tripropionin) was 18.1% mass % and the “Solubility (mass %) of vanillin at 25° C.” value ([1]; solvent n-Pentadecane) was 0.05% mass %. The “Solubility (mass %) of vanillin at 25° C.” value ([1]; solvent γ-Undecalactone) was 16.2% mass %, the “Solubility (mass %) of vanillin at 25° C.” value ([1]; solvent δ-Decalactone) was 17.4% mass % and the “Solubility (mass %) of vanillin in solvent-heptane mixed solvent (1:1) at 25° C.” value ([2]; Benzyl benzoate-heptane (1:1)) was 1.2% mass %. The “Solubility (mass %) of vanillin in solvent-heptane mixed solvent (1:1) at 25° C.” value ([2]; Dibenzyl ether-heptane (1:1)) was 0.9% mass %, the “Solubility (mass %) of vanillin in solvent-heptane mixed solvent (1:1) at 25° C.” value ([2]; Dibutyl adipate-heptane (1:1)) was 1.4% mass % and the “Solubility (mass %) of vanillin in solvent-heptane mixed solvent (1:1) at 25° C.” value ([2]; Dibutyl fumarate-heptane (1:1)) was 1.0% mass %. For the same compound, the “Solubility (mass %) of vanillin in solvent-heptane mixed solvent (1:1) at 25° C.” value ([2]; Dibutyl succinate-heptane (1:1)) was 1.7% mass %, the “Solubility (mass %) of vanillin in solvent-heptane mixed solvent (1:1) at 25° C.” value ([2]; Diethyl phthalate-heptane (1:1)) was “Oiling out” and the “Solubility (mass %) of vanillin in solvent-heptane mixed solvent (1:1) at 25° C.” value ([2]; Diethyl sebacate-heptane (1:1)) was 1.6% mass %. For the same compound, the “Solubility (mass %) of vanillin in solvent-heptane mixed solvent (1:1) at 25° C.” value ([2]; Diisobutyl adipate-heptane (1:1)) was 1.4% mass %, the “Solubility (mass %) of vanillin in solvent-heptane mixed solvent (1:1) at 25° C.” value ([2]; Ethyl laurate-heptane (1:1)) was 0.6% mass % and the “Solubility (mass %) of vanillin in solvent-heptane mixed solvent (1:1) at 25° C.” value ([2]; Isopropyl myristate-heptane (1:1)) was 0.3% mass %. The “Solubility (mass %) of vanillin in solvent-heptane mixed solvent (1:1) at 25° C.” value ([2]; Tetraglyme-heptane (1:1)) was “Oiling out”, the “Solubility (mass %) of vanillin in solvent-heptane mixed solvent (1:1) at 25° C.” value ([2]; Tripropionin-heptane (1:1)) was “Oiling out” and the “Solubility (mass %) of vanillin in solvent-heptane mixed solvent (1:1) at 25° C.” value ([2]; dibutyl maleate-Heptane (1:1)) was 1.7% mass %. The “Solubility (mass %) of vanillin in solvent-heptane mixed solvent (1:1) at 25° C.” value ([2]; γ-Undecalactone-heptane (1:1)) was 3.6% mass %, the “Solubility (mass %) of vanillin in solvent-heptane mixed solvent (1:1) at 25° C.” value ([2]; δ-Decalactone-heptane (1:1)) was “Oiling out” and the “Solubility (mass %) of vanillin in dibutyl maleate-solvent mixed solvent (1:1) at 25° C.” value ([3]; dibutyl maleate-Cyclohexane (1:1)) was 2.1% mass %. For the same compound, the “Solubility (mass %) of vanillin in dibutyl maleate-solvent mixed solvent (1:1) at 25° C.” value ([3]; dibutyl maleate-Heptane (1:1)) was 1.7% mass %, the “Solubility (mass %) of vanillin in dibutyl maleate-solvent mixed solvent (1:1) at 25° C.” value ([3]; dibutyl maleate-Hexane (1:1)) was 1.7% mass % and the “Solubility (mass %) of vanillin in dibutyl maleate-solvent mixed solvent (1:1) at 25° C.” value ([3]; dibutyl maleate-Isooctane (1:1)) was 1.8% mass %. The “Solubility (mass %) of vanillin in dibutyl maleate-solvent mixed solvent (1:1) at 25° C.” value ([3]; dibutyl maleate-Petroleum ether (1:1)) was 1.6% mass % and the “Solubility (mass %) of vanillin in dibutyl maleate-solvent mixed solvent (1:1) at 25° C.” value ([3]; dibutyl maleate-Toluene (1:1)) was 5.5% mass %.
